Data on two compounds can be found in patent US7718688B2, “Nitrobenzindoles and their use in cancer therapy” (Auckland Uniservices Limited, priority 2004, dated 2010).

Data set [1] can be described thus: One-electron reduction potential E(1) by pulse radiolysis. The conditions noted are these: determined by pulse radiolysis. Type of data set: physicochemical.
Data set [2] relates to SKOV3: human ovarian carcinoma cell line. Nature of the data set: Proliferation IC50 assay, oxic/hypoxic, SKOV3. In kind it is cell-based. The following applies: Table 3; for IC50: Homo sapiens, SK-OV-3, 4 h exposure under aerobic conditions.
The subject of data set [3] is HT29 clonogens. The experiment in a line: Clonogenic assay (C10), oxic/hypoxic, HT29. In kind it is cell-based, human. The conditions noted are these: for Clonogenic HCR HT29: C10(aerobic)/C10(hypoxic); for Clonogenic C10 HT29 Oxic: concentration to reduce HT29 clonogens to 10% of controls, 4 hr exposure under aerobic conditions.
Data set [4] deals with HT29: human colon cancer cell line. The experiment in a line: Proliferation IC50 assay, oxic/hypoxic, HT29. Type of data set: cell-based. The conditions noted are these: Table 3; for IC50: Homo sapiens, HT-29, 4 h exposure under aerobic conditions.
Data set [5] is described as follows: Hypoxic metabolism with HT29 tumour S9 (HPLC). The conditions noted are these: 10 μM with tumour S9 (12 mg/mL protein), 37° C., pH 7.4, NADPH 1 mM, 2 h, hypoxic; products R3, 56, 55, 60. An excerpt: Metabolism of compounds of Formula I was investigated using S9 preparations from HT29 tumours grown as xenografts in CD-1 mice.
Data set [6] can be described thus: Plasma pharmacokinetics after intravenous 36 in mice (LC/MS/MS). In kind it is in vivo, CD-1 mice (nu/+ heterozygotes). The following applies: CD-1 (nu/+ heterozygotes), mouse.
Description: The compounds were assayed in plasma, following precipitation of proteins with methanol, using an LC/MS/MS (triple quadrupole mass spectrometer).

`CN(C)CCOc1ccc2[nH]c(C(=O)N3CC(CCl)c4c3cc([N+](=O)[O-])c3ccccc43)cc2c1` (centres unmarked) [Compound R2, reference compound]: in data set [1], the “E(1): one-electron reduction potential” value is recorded as −512 ± 8 mV. Further, the IC50 in data set [2] was 1.4 µM; in data set [4], 0.47 µM. Besides, the “Clonogenic HCR HT29” value in data set [3] worked out at 2. Moreover, the “Clonogenic C10 HT29 Oxic” value in data set [3] amounted to 4.8 µM. For the same compound, the “k: rate of formation of compound of Formula II” value in data set [5] came out at 0.49 µM/h.
`CN(C)CCOc1ccc2[nH]c(C(=O)N3CC(CCl)c4c3cc([N+](=O)[O-])c3cc(S(=O)(=O)NCCO)ccc43)cc2c1` (centres unmarked) [Compound 35, 1-(Chloromethyl)-3-{5-[2-(dimethylamino)ethoxy]indol-2-carbonyl}-N-(2-hydroxyethyl)-5-nitro-1,2-dihydro-3H-benzo[e]indole-7-sulfonamide]: the melting point lay in the range of 205 to 210 °C. For the same compound, the “E(1): one-electron reduction potential” value in data set [1] is −392 ± 7 mV. Further, half-maximal inhibition in data set [2] (IC50) required 9.2 µM. The “HCR (hypoxic cytotoxicity ratio) SKOV3” value in data set [2] (IC50(aerobic)/IC10(hypoxic)) came to 250. Also, in data set [3], the “Clonogenic HCR HT29” value came out at 74.4 and the “Clonogenic C10 HT29 Oxic” value is 115 µM. For the same compound, the “AUC for 90% kill of HT29 cells under hypoxic conditions” value in data set [3] (estimated from the clonogenic assay data in Table 3) was 371 µM·min. Besides, the AUC in data set [6] (intravenous, 42.1 μmol/kg, 35 derived from 36, plasma, mice) is roughly 11.7 µM·h. Besides, the AUC in data set [6] (iv, 42.1 umol/kg, plasma, CD-1 mice, 36 i.v. 42.1 μmol/kg, 35 as metabolite of 36, mean) is 11.7 µM·h. Moreover, the clearance in data set [6] (iv, 42.1 umol/kg, plasma, CD-1 mice, 36 i.v. 42.1 μmol/kg, 35 as metabolite of 36, mean, read-out: Cl (clearance)) is 61 mL/min/kg. For the same compound, the half-life in data set [6] (iv, 42.1 umol/kg, plasma, CD-1 mice, 36 i.v. 42.1 μmol/kg, 35 as metabolite of 36, mean, read-out: T1/2 (terminal half-life)) is 43 min. The Vd in data set [6] (iv, 42.1 umol/kg, plasma, CD-1 mice, 36 i.v. 42.1 μmol/kg, 35 as metabolite of 36, mean, read-out: Vd (volume of distribution based on the terminal phase)) came to 3.8 L/kg. Besides, the IC50 in data set [4] is 5.5 µM. For the same compound, in data set [4] (IC50(aerobic)/IC10(hypoxic)), the “HCR (hypoxic cytotoxicity ratio) HT29” value came out at 90.

By IC50 is commonly meant the concentration needed to halve the response being measured. The melting point is the temperature of the solid-liquid transition. What is called AUC is concentration integrated over time. In general, clearance refers to a measure of how efficiently the substance is removed, as volume per time. As a reminder, the Vd is a proportionality between amount in the body and measured concentration, not a real space.
